# Target: T1, PAR1 (Homo sapiens, UniProt P25116)
# T1 sequence (P25116 22-425): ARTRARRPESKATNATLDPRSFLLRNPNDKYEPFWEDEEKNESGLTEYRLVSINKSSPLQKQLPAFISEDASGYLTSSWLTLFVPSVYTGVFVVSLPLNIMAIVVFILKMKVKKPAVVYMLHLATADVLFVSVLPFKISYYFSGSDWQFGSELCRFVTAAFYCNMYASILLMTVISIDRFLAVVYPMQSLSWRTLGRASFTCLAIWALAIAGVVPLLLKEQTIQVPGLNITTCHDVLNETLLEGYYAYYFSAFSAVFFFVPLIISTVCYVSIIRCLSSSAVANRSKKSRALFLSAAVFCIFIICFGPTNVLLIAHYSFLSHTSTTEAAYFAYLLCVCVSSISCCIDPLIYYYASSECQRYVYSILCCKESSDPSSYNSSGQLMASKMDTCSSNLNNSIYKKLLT
# Test: Calcium ion influx experiment (FLIPR), PAR1 inhibition activity, HEK293-Ga15-PAR1 cell strain, agonist haTRAP
# Assay type: cell-based
# Conditions: HEK293-Ga15-PAR1 cells; for IC50: calcium influx, agonist haTRAP 3 μM, 4-PL fit; for Slope: slope of 4-PL dosage-effect curve, haTRAP 3 μM
# Experimental: Embodiment 6: Determination of Biological Activity (PAR1 Inhibition Activity) of the Compound
# An HEK293-Ga15-PAR1 cell strain (HD Biosciences stable cell strain) was quickly taken out of a liquid nitrogen tank, and shaken continuously in a 37° C. water bath until it was completely melted. A cell suspension was quickly added into a pre-heated culture medium (90% DMEM+10% FBS+1× Pen/Strep), placed in a centrifuge and centrifuged at 1000 rpm for 10 minutes. A centrifugal tube was taken out, the supernatant was discarded, and the fresh pre-heated culture medium was added into the centrifugal tube, cells were resuspended, and the cell suspension was added into a culture dish and cultured at 37° C. with 5% of CO2.
# When the cells reached 80-90% of the culture dish, the cells were gently washed with 0.05% of trypsin-EDTA, part of digestive juice was removed, then the cells were incubated for 2-3 min, the digestion was terminated with the new culture medium, the cells were gently blew with a gun head, and the cells were resuspended. In general, the passage was performed according to 1:4 to 1:8 every 2 to 3 days.
# On the day before the experiment, 1× Matrigel (Brand: BD, Cat #: 356230) was added into a clean 384-well cell plate, incubated at 37° C. for 30 minutes, and then inverted and centrifuged at 500 rpm for 30 seconds to remove the coating solution.
# The cell precipitate was digested and collected, resuspended in the culture medium to 3×10^5 cells/mL, added into the coated cell plate according to 50 μL per well and then incubated at 37° C. with 5% of CO2 overnight.
# On the day of the experiment, the fresh experimental buffer solution and 0.5× Calcium 4 (Brand: Molecular Devices, Cat #: R8141) loading buffer solution were prepared.
# The 30 mM DMSO stock solution was first diluted with DMSO to 10 mM, and then diluted 4 times from 10 mM for a total of 10 concentrations. Ten DMSO concentration gradients of the compound were added into the experimental buffer solution at a ratio of 1:20 to prepare a working solution of the compound (5 times the final reaction concentration). After that, the working solution of the compound was transferred into a 384-well compound plate according to the layout in the following drawing for later use.
# Positive control: 40 mM DMSO stock solution of the reference compound SCH79797 was diluted to 2 mM;
# Negative control: 5% of DMSO prepared from the experimental buffer solution
# 10 mM DMSO stock of the agonist haTRAP was diluted with the experimental buffer solution to 18 μM (6 times the final reaction concentration 3 μM), and then transferred into a 384-well compound plate, at least at 25 μl/well for later use.
# The cell plate incubated overnight was taken out, the cell culture medium was removed by centrifugation at 300 rpm for 30 seconds, 20 μL of freshly prepared 0.5× Calcium 4 loading buffer solution was added into every well and then incubation was performed at 37° C. with 5% of CO2 for 1 hour.
# The compound working solution was transferred from the compound plate to the cell plate at 5 μL/well according to the layout, then placed at 37° C. again and incubated with 5% of CO2 for 15 minutes.
# The agonist was transferred from the 384-well compound plate (FLIPR) to the cell plate at 5 μL/well according to the program set by FLIPR, and the fluorescent signals in each well of the cell plate were simultaneously read.
# The inhibition rate (%) of the compound in each well on the cell plate was calculated according to the fluorescence signal values of the positive control and the negative control on each cell plate. […] The inhibition rates and the corresponding concentrations of the compounds obtained by calculation were introduced into the relevant software for graphing, and the IC50 values of the compounds were calculated according to the 4-PL dosage-effect formula. The IC50 result of the reference compound is also one of standards for testing the quality of every experiment.
IC50 [µM],SMILES,Slope
7.76,C[C@]1(CO)[C@H]2CCC3(CO3)[C@@H](/C=C/c3ccc(-c4cccc(F)c4)cn3)[C@]2(C)CC[C@H]1O (stereo partly drawn) [Compound I-1],
7.95,C[C@]1(CO)[C@H]2CCC3(CO3)[C@@H](/C=C/c3ccc(-c4cccc(C(F)(F)F)c4)cn3)[C@]2(C)CC[C@H]1O (stereo partly drawn) [Compound I-2],
8.91,C[C@]1(CO)[C@H]2CCC(CO)[C@@H](CCc3ccc(-c4cccc(F)c4)cn3)[C@]2(C)CC[C@H]1O (stereo partly drawn) [Compound I-3],
8.76,C[C@]1(CO)[C@H]2CCC(CO)[C@@H](CCc3ccc(-c4cccc(C(F)(F)F)c4)cn3)[C@]2(C)CC[C@H]1O (stereo partly drawn) [Compound I-4],
3.52,C[C@@]1(C=O)[C@H](O)CC[C@@]2(C)[C@H](/C=C/c3ccc(-c4cccc(F)c4)cn3)C3(CC[C@H]12)CO3 (stereo partly drawn) [Compound I-7],1.02
8.71,"CC(C)c1ccc(Cn2ccc3c4c(N)nc(NC5CC5)nc4ccc32)cc1 [SCH79797, reference compound]",0.95

SMILES,IC50 [µM],Slope
COC[C@@]1(C)[C@H]2CCC3(CO3)[C@@H](/C=C/c3ccc(-c4cccc(F)c4)cn3)[C@]2(C)CC[C@H]1O (stereo partly drawn) [Compound I-5],7.07,2.59
CO[C@@H]1CC[C@]2(C)[C@H](CCC3(CO3)[C@H]2/C=C/c2ccc(-c3cccc(F)c3)cn2)[C@]1(C)CO (stereo partly drawn) [Compound I-6],11,1.53
C[C@@]12CC[C@@H](O)[C@@](C)(C(=O)O)[C@H]1CCC1(CO1)[C@H]2/C=C/c1ccc(-c2cccc(F)c2)cn1 (stereo partly drawn) [Compound I-8],31.6,1.97
COC(=O)[C@]1(C)[C@H](O)CC[C@@]2(C)[C@H](/C=C/c3ccc(-c4cccc(F)c4)cn3)C3(CC[C@@H]21)CO3 (stereo partly drawn) [Compound I-9],0.66,0.97
C[C@@]1(C(=O)O)C(=O)CC[C@@]2(C)[C@H](/C=C/c3ccc(-c4cccc(F)c4)cn3)C3(CC[C@H]12)CO3 (stereo partly drawn) [Compound I-10],19.7,1.23
